Measurements from article PMC6104039 (Nature Communications, 2018).
Where “and” joins values, the source holds several entries; their conditions need not be identical. Equal values may be shown once.

Test system: adipose tissue
Assay: Ceramide and SM species in epididymal adipose tissue
Assay type: in vivo, mice
Details: for Ceramide 18:1/16:0 content of white adipose tissue / Ceramide 18:1/18:0 content of white adipose tissue / Ceramide 18:1/20:0 content of white adipose tissue / Ceramide 18:1/22:0 content of white adipose tissue / Ceramide 18:1/24:0 content of white adipose tissue / Ceramide 18:1/24:1 content of white adipose tissue / Ceramide 18:2/18:0 content of white adipose tissue / Ceramide 18:2/22:0 content of white adipose tissue / Ceramide 18:2/24:0 content of white adipose tissue / Ceramide 18:2/24:1 content of white adipose tissue / SM 34:1 content of white adipose tissue / SM 34:2 content of white adipose tissue / SM 36:1 content of white adipose tissue / SM 36:2 content of white adipose tissue / SM 38:1 content of white adipose tissue / SM 38:2 content of white adipose tissue / SM 40:1 content of white adipose tissue / SM 40:2 content of white adipose tissue / SM 42:1 content of white adipose tissue / SM 42:2 content of white adipose tissue / SM 42:3 content of white adipose tissue: individual values; for Ceramide 18:1/16:0 content of white adipose tissue / Ceramide 18:1/18:0 content of white adipose tissue / Ceramide 18:1/20:0 content of white adipose tissue / Ceramide 18:1/22:0 content of white adipose tissue / Ceramide 18:1/24:0 content of white adipose tissue / Ceramide 18:1/24:1 content of white adipose tissue / Ceramide 18:2/18:0 content of white adipose tissue / Ceramide 18:2/22:0 content of white adipose tissue / Ceramide 18:2/24:0 content of white adipose tissue / Ceramide 18:2/24:1 content of white adipose tissue: raw data Fig 3l; for SM 34:1 content of white adipose tissue / SM 34:2 content of white adipose tissue / SM 36:1 content of white adipose tissue / SM 36:2 content of white adipose tissue / SM 38:1 content of white adipose tissue / SM 38:2 content of white adipose tissue / SM 40:1 content of white adipose tissue / SM 40:2 content of white adipose tissue / SM 42:1 content of white adipose tissue / SM 42:2 content of white adipose tissue / SM 42:3 content of white adipose tissue: raw data Fig 3m
Experimental: Male C57BL6/J mice were obtained from the Animal Resources Centre in Perth (WA, Australia). Mice were housed at 22 ± 1 °C with a controlled 12:12 h light-dark cycle and had ad libitum access to water and either chow (8% calories from fat) or HFD (45% calories from fat)[66] for 4–6 weeks. […] Treatment was commenced at the same time as mice were randomised to dietary groups. The experiments were approved by the UNSW animal care and ethics committee (ACEC 15/48B), and followed guidelines issued by the National Health and Medical Research Council of Australia.
Lipids were extracted from frozen tissue samples or cells using a two-phase procedure with methyl-tert-butyl ether (MTBE)/methanol/water (10:3:2.5, v/v/v)[67]. Frozen tissue samples (~20 mg) were homogenized in 0.2 mL methanol containing 0.01% butylated hydroxytoluene (BHT), using a Precellys 24 homogenizer and Cryolys cooling unit (Bertin Technologies) with CK14 (1.4-mm ceramic) beads. The homogenates were spiked with an internal standard mixture comprising 5 nmole 19:0/19:0 phosphatidylcholine and 2 nmole each of 17:0/17:0 phosphatidylethanolamine, 17:0/17:0 phosphatidylserine, 17:0/17:0 d5-diacylglycerol, 17:0/17:0 phosphatidylglycerol, 14:0/14:0/14:0/14:0 cardiolipin, 18:1/12:0 SM, 18:1/17:0 ceramide, 18:1/12:0 glucosylceramide, 18:1/12:0 lactosylceramide, 18:1/12:0 sulfatide (all from Avanti Polar Lipids, USA), and 17:0/17:0/17:0 TAG (Cayman Chemical, USA), then transferred to 10 mL screw cap glass tubes. The homogenization tubes containing beads were then washed with another 0.3 mL methanol, and this wash was combined with the first methanol extract, after which 1.7 mL MTBE was added and the samples were sonicated in an ice-cold sonicating water bath (Thermoline Scientific, Australia) for 30 min. Phase separation was induced by addition of 417 µL of mass spectrometry-grade water followed by vortexing and centrifugation at 1000 × g for 10 min. The upper organic phase was collected into 5 mL glass tubes. The lower phase was re-extracted by adding 1 mL MTBE, 300 μL methanol, and 250 μL water. The organic phases were combined in the 5 mL glass tubes and dried under vacuum in a Savant SC210 SpeedVac (Thermo Scientific), then reconstituted in 500 μL methanol and stored at −20 °C until analysis.
Lipidomic profiling was performed on a QExactive Plus mass spectrometer with heated electrospray ionization (HESI) probe and a Dionex UltiMate 2000 LC pump (Thermo Fisher Scientific). Extracts were resolved on a 2.1 × 100 mm Waters Acquity C18 UPLC column (1.7 µm […]), using a binary gradient in which mobile phase A consisted of acetonitrile:water (60:40), 10 mM ammonium formate, 0.1% formic acid; and mobile phase B was isopropanol:acetonitrile (90:10), 10 mM ammonium formate, 0.1% formic acid[68]. The flow rate was 260 µL/min and column oven 55 °C. Data was acquired in full scan/data-dependent MS^2 mode (full scan resolution 70,000 FWHM, scan range 400–1200 m/z). The ten most abundant ions in each cycle were subjected to MS^2 using an isolation window of 1.4 m/z, collision energy 30 eV, resolution 17,500, maximum integration time 110 ms and dynamic exclusion window 10 s. An exclusion list of background ions was used based on a solvent blank. LipidSearch v4.1.30 software (ThermoFisher Scientific) was used for chromatogram alignment, peak identification and integration. Each lipid peak was manually verified for column elution time and characteristic fragment ions. Data were then exported to an Excel spreadsheet for normalisation of each lipid to its class-specific internal standard, and lipid concentrations were calculated relative to the internal standard.

SMILES: C[C@@](N)(CO)CCc1ccc(OCc2ccc(Cl)c(Cl)c2)cc1 [P053, (S)-2-amino-4-(4-(3,4-dichlorobenzyloxy)phenyl)-2-methylbutan-1-ol]
- Ceramide 18:1/16:0 content of white adipose tissue (Chow + P053): 10.929 and 4.227 and 17.193 and 8.156 and 14.726 and 6.210 and 17.172 and 6.636 and 12.272 and 15.061
- Ceramide 18:1/18:0 content of white adipose tissue (Chow + P053): 2.114 and 0.846 and 3.339 and 1.520 and 2.375 and 1.130 and 3.918 and 1.468 and 2.718 and 2.056
- Ceramide 18:1/20:0 content of white adipose tissue (Chow + P053): 1.814 and 0.867 and 3.626 and 1.453 and 2.395 and 1.178 and 2.617 and 1.217 and 2.593 and 1.998
- Ceramide 18:1/22:0 content of white adipose tissue (Chow + P053): 4.127 and 2.201 and 7.564 and 3.535 and 5.536 and 3.049 and 7.800 and 3.557 and 5.828 and 4.572
- Ceramide 18:1/24:0 content of white adipose tissue (Chow + P053): 6.125 and 3.020 and 12.234 and 6.320 and 9.940 and 4.064 and 14.430 and 5.790 and 10.017 and 7.844
- Ceramide 18:1/24:1 content of white adipose tissue (Chow + P053): 10.504 and 6.110 and 22.417 and 11.780 and 19.731 and 7.603 and 26.592 and 10.551 and 18.107 and 16.532
- Ceramide 18:2/18:0 content of white adipose tissue (Chow + P053): 1.183 and 0.312 and 1.256 and 0.618 and 1.358 and 0.382 and 1.268 and 0.527 and 0.931 and 1.219
- Ceramide 18:2/22:0 content of white adipose tissue (Chow + P053): 2.177 and 0.918 and 3.608 and 1.721 and 2.577 and 1.375 and 2.989 and 1.482 and 2.309 and 2.564
- Ceramide 18:2/24:0 content of white adipose tissue (Chow + P053): 4.508 and 1.750 and 7.166 and 3.688 and 5.287 and 2.715 and 7.269 and 3.296 and 4.451 and 6.052
- Ceramide 18:2/24:1 content of white adipose tissue (Chow + P053): 4.820 and 2.648 and 9.228 and 4.871 and 7.660 and 3.147 and 9.518 and 3.932 and 5.805 and 6.812
- SM 34:1 content of white adipose tissue (Chow + P053): 276.61 and 66.44 and 226.46 and 212.93 and 276.78 and 111.51 and 327.37 and 118.77 and 188.15 and 267.47
- SM 34:2 content of white adipose tissue (Chow + P053): 23.85 and 2.33 and 6.66 and 4.19 and 4.83 and 3.15 and 5.28 and 2.34 and 3.58 and 6.77
- SM 36:1 content of white adipose tissue (Chow + P053): 33.66 and 9.97 and 25.23 and 24.39 and 28.26 and 12.44 and 31.61 and 15.13 and 21.89 and 30.09
- SM 36:2 content of white adipose tissue (Chow + P053): 12.60 and 1.84 and 8.68 and 8.41 and 12.18 and 3.45 and 12.76 and 4.74 and 5.44 and 12.73
- SM 38:1 content of white adipose tissue (Chow + P053): 22.37 and 7.77 and 26.08 and 17.58 and 21.03 and 10.59 and 19.70 and 11.77 and 20.28 and 19.73
- SM 38:2 content of white adipose tissue (Chow + P053): 5.83 and 1.41 and 5.52 and 4.51 and 5.60 and 2.81 and 4.44 and 2.01 and 3.84 and 6.42
- SM 40:1 content of white adipose tissue (Chow + P053): 44.87 and 18.02 and 56.10 and 41.83 and 53.17 and 20.49 and 52.33 and 23.88 and 40.81 and 43.57
- SM 40:2 content of white adipose tissue (Chow + P053): 12.98 and 4.14 and 11.80 and 8.16 and 10.55 and 6.16 and 10.26 and 5.10 and 7.07 and 11.44
- SM 42:1 content of white adipose tissue (Chow + P053): 28.12 and 11.04 and 39.22 and 23.51 and 29.01 and 11.65 and 31.95 and 14.81 and 26.21 and 27.56
- SM 42:2 content of white adipose tissue (Chow + P053): 81.27 and 33.26 and 95.54 and 83.35 and 95.85 and 36.01 and 109.30 and 44.61 and 71.06 and 85.15
- SM 42:3 content of white adipose tissue (Chow + P053): 22.64 and 7.14 and 18.55 and 16.77 and 22.11 and 8.66 and 22.41 and 8.50 and 11.09 and 21.29
- Ceramide 18:1/16:0 content of white adipose tissue (HFD + P053): 7.201 and 8.054 and 16.149 and 4.934 and 4.539 and 15.378 and 9.982 and 4.818 and 11.537 and 7.369
- Ceramide 18:1/18:0 content of white adipose tissue (HFD + P053): 2.978 and 2.646 and 5.343 and 1.908 and 1.464 and 4.498 and 3.784 and 2.039 and 3.490 and 2.759
- Ceramide 18:1/20:0 content of white adipose tissue (HFD + P053): 1.960 and 1.699 and 2.742 and 0.969 and 1.134 and 2.311 and 2.304 and 0.962 and 2.130 and 1.825
- Ceramide 18:1/22:0 content of white adipose tissue (HFD + P053): 2.875 and 3.855 and 6.655 and 3.344 and 2.629 and 5.839 and 6.468 and 2.833 and 3.815 and 4.292
- Ceramide 18:1/24:0 content of white adipose tissue (HFD + P053): 2.389 and 3.918 and 5.983 and 4.215 and 2.773 and 8.001 and 8.331 and 4.355 and 4.168 and 5.733
- Ceramide 18:1/24:1 content of white adipose tissue (HFD + P053): 6.096 and 8.629 and 13.174 and 7.744 and 4.866 and 14.789 and 13.116 and 7.511 and 9.181 and 8.543
- Ceramide 18:2/18:0 content of white adipose tissue (HFD + P053): 1.491 and 1.389 and 1.897 and 0.793 and 0.611 and 2.474 and 2.012 and 0.838 and 2.141 and 1.309
- Ceramide 18:2/22:0 content of white adipose tissue (HFD + P053): 1.850 and 2.082 and 3.075 and 1.861 and 1.560 and 3.228 and 3.861 and 1.939 and 2.443 and 2.309
- Ceramide 18:2/24:0 content of white adipose tissue (HFD + P053): 2.470 and 3.270 and 4.398 and 3.698 and 2.656 and 6.741 and 6.951 and 4.253 and 4.048 and 5.078
- Ceramide 18:2/24:1 content of white adipose tissue (HFD + P053): 3.997 and 4.831 and 5.433 and 4.596 and 3.171 and 8.097 and 7.476 and 4.878 and 5.777 and 4.939
- SM 34:1 content of white adipose tissue (HFD + P053): 138.16 and 152.76 and 183.91 and 125.06 and 78.40 and 408.02 and 164.42 and 164.75 and 189.26 and 180.12
- SM 34:2 content of white adipose tissue (HFD + P053): 3.94 and 4.36 and 5.23 and 3.24 and 2.75 and 11.91 and 3.96 and 4.10 and 5.05 and 4.63
- SM 36:1 content of white adipose tissue (HFD + P053): 30.80 and 33.18 and 60.02 and 24.06 and 21.10 and 82.70 and 34.64 and 35.42 and 37.81 and 37.83
- SM 36:2 content of white adipose tissue (HFD + P053): 13.65 and 13.63 and 9.26 and 9.31 and 4.59 and 33.15 and 15.13 and 9.69 and 16.44 and 14.20
- SM 38:1 content of white adipose tissue (HFD + P053): 14.96 and 15.80 and 25.22 and 10.28 and 10.56 and 34.10 and 16.91 and 15.85 and 15.88 and 17.49
- SM 38:2 content of white adipose tissue (HFD + P053): 5.67 and 4.70 and 6.95 and 2.89 and 2.82 and 9.23 and 2.88 and 2.78 and 5.06 and 4.54
- SM 40:1 content of white adipose tissue (HFD + P053): 19.38 and 29.35 and 36.60 and 23.08 and 16.71 and 83.76 and 47.96 and 37.67 and 36.07 and 44.84
- SM 40:2 content of white adipose tissue (HFD + P053): 7.44 and 8.09 and 11.71 and 6.74 and 5.23 and 19.76 and 11.68 and 7.96 and 9.66 and 10.63
- SM 42:1 content of white adipose tissue (HFD + P053): 8.78 and 13.45 and 15.34 and 10.58 and 7.52 and 42.80 and 18.82 and 17.05 and 15.81 and 20.73
- SM 42:2 content of white adipose tissue (HFD + P053): 28.15 and 38.15 and 51.68 and 31.28 and 20.55 and 119.48 and 50.63 and 47.22 and 48.80 and 50.51
- SM 42:3 content of white adipose tissue (HFD + P053): 9.88 and 12.29 and 14.77 and 10.62 and 6.46 and 36.48 and 16.98 and 13.87 and 16.08 and 14.63
- C18 ceramide or SM and other ceramide or SM species in adipose tissue (chow or HFD): did not significantly impact
